Laboratory results published in US20210179578A1, “OX1 ANTAGONISTS” (Heptares Therapeutics Limited, priority 2017, published 2021).

Molecular target: T1, human OX1 receptor (Homo sapiens, UniProt O43613)
T1 sequence (O43613 1-425): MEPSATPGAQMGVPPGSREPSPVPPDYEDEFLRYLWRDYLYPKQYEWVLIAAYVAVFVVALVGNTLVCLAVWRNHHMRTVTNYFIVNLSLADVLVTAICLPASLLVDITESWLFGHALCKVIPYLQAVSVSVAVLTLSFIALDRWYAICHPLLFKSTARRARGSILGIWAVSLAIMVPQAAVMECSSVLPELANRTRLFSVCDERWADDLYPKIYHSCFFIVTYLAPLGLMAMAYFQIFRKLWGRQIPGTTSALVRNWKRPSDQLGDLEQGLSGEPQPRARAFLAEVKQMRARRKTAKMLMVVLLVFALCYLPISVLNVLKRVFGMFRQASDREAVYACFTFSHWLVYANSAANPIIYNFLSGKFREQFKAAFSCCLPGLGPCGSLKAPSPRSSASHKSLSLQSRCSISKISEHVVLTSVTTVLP
Experiment: [3H]-radioligand binding assay, OX1
Set-up: made in house; host or cells: SF21 insect cells (baculovirus; P0 virus made in SF9)
Conditions: [3H]-radioligand binding, human OX1 membranes; read-out: pKi average OX1 (converted)
Description: Cloning, Baculovirus generation, large-scale infection of SF21 cells and membrane preparation. Human OX1 or OX2 receptor were cloned into Invitrogen's (ThermoFisher Scientific, UK) Bac-to-Bac Baculovirus Expression System. P0 baculovirus was generated by transfecting SF9 cells with bacmid DNA using Cellfectin® II transfection reagent (ThermoFisher Scientific, UK, Catalog number 10362-100). Following P0 generation P1 virus was then generated ready for large scale infection and membrane preparation. SF21 cells were grown in expression medium ESF921 (Expression Systems, USA, catalog number 96-001-01) supplemented with 10% heat-inactivated FBS and 1% Pen/Strep and were infected at a cell density of 2.5×10^6 cells/mL and a multiplicity of infection of 1.0 for both human OX1R and OX2R. Incubation was carried out at over 48 h in a shaking incubator set at 27° C. The cell culture was then centrifuged at 2,500 rcf for 10 min at 4° C. The pellets were resuspended in cold PBS supplemented with Roche's Complete EDTA-free protease inhibitor cocktail tablets (Roche Applied Sciences, catalog number 05056489001), 1 mM PMSF and 1 mM EDTA. The resuspended cell paste was then centrifuged at 3,273 rcf for 12 min at 4° C. The supernatant was discarded and the pellet frozen at −80° C. The cell pellet from a 4 L culture was resuspended in buffer containing 50 mM HEPES pH 7.5, 150 mM NaCl, 8 Roche EDTA-Free protease inhibitor cocktail tablets and 1 mM PMSF. The suspension was left stirring at rt for 1 h and then homogenised for 90 s at 9,500 rpm using a VDI 25 (VWR, USA) homogeniser. The cells were then lysed using a Microfluidiser processor M-110L Pneumatic (Microfluidics, USA) at 60 PSI and membranes collected by ultracentrifugation at 204.7 k×g for 1 h. The supernatant was discarded and the pellet was resuspended and homogenised in 90 s at 9,500 rpm in 50 mL (25 mL for each 2 L culture) of buffer containing 50 mM Hepes pH 7.5, 150 mM NaCl, 3 Roche EDTA-free protease inhibitor cocktail tablets and 1 mM PMSF. The resulting membranes were then stored at −80° C.
[^3H]-radioligand binding assay. After thawing, membrane homogenates were resuspended in the binding buffer (8.5 mM HEPES, pH 7.4, 1.3 mM CaCl2, 1.2 mM MgSO4, 118 mM NaCl, 4.7 mM KCl, 4 mM NaHCO3, 1.2 mM KH2PO4, 11 mM glucose) to a final assay concentration of 6.4 μg (OX1) or 1.4 μg (OX2) protein per well. Saturation isotherms were determined by the addition of various concentrations (0-30 nM) of [^3H]-4-(2,6-difluoro-4-methoxybenzyl)-2-(5,6-dimethoxypyridin-3-yl)-2H-1,2,4-benzothiadiazin-3(4H)-one 1,1-dioxide (Christopher et al, MedChemComm., 2015, 6, 947-955) in a total reaction volume of 250 μL for 90 min at rt. At the end of the incubation, membranes were filtered onto a 96-well GF/B filter pre-incubated with 0.5% polyethylenimine, with a Tomtec cell harvester and washed 5 times with 0.5 mL distilled water. Non-specific binding (NSB) was measured in the presence of 3.33 μM [4-(5-chloro-1,3-benzoxazol-2-yl)-7-methyl-1,4-diazepan-1-yl][5-methyl-2-(2H-1,2,3-triazol-2-yl)phenyl]methanone (Wertz et al, Angew. Chem. Int. Ed., 2011, 50, 11511-11515). Radioactivity on the filter was counted (1 min) on a Microbeta radiometric plate counter (Perkin Elmer) after addition of 50 μL of scintillation fluid (LabLogic: Part #SG-BXX-14). […] IC50 values were derived from the inhibition curve and the equilibrium dissociation constant (Ki) values were calculated using the Cheng-Prusoff equation.

Row | Compound | Ki
1 | COc1ncc(C2CCc3c(F)cccc3N(Cc3cc(C#N)ccc3F)C2=O)cc1C(C)(F)F (single isomer, unassigned) [Example 13, 3-({3-[5-(1,1-difluoroethyl)-6-methoxypyridin-3-yl]-6-fluoro-2-oxo-2,3,4,5-tetrahydro-1H-1-benzazepin-1-yl}methyl)-4-fluorobenzonitrile] | 0.794 nM
2 | Cc1ccc(N2CCc3c(F)cccc3N(Cc3c(F)cc(Br)cc3F)C2=O)cc1C(C)(F)F [Example 1, 1-(4-bromo-2,6-difluorobenzyl)-3-[3-(1,1-difluoroethyl)-4-methylphenyl]-6-fluoro-1,3,4,5-tetrahydro-2H-1,3-benzodiazepin-2-one] | 2 nM
3 | Cc1cc(C)c(S(C)(=O)=O)cc1N1CCc2ccccc2N(Cc2c(F)cc(Br)cc2F)C1=O [Example 29, 1-(4-bromo-2,6-difluorobenzyl)-3-[2,4-dimethyl-5-(methylsulfonyl)phenyl]-1,3,4,5-tetrahydro-2H-1,3-benzodiazepin-2-one] | 1.26 nM
4 | CCCc1cc(F)c(CN2C(=O)N(c3ccc(C)c(S(C)(=O)=O)c3)CCc3c(F)cccc32)c(F)c1 [Example 28, 1-(2,6-difluoro-4-propylbenzyl)-6-fluoro-3-[4-methyl-3-(methylsulfonyl)phenyl]-1,3,4,5-tetrahydro-2H-1,3-benzodiazepin-2-one] | 2 nM
5 | Cc1ncc(N2CCc3c(F)cccc3N(Cc3c(F)cc(Br)cc3F)C2=O)cc1OC(F)F [Example 37, 1-(4-bromo-2,6-difluorobenzyl)-3-[5-(difluoromethoxy)-6-methylpyridin-3-yl]-6-fluoro-1,3,4,5-tetrahydro-2H-1,3-benzodiazepin-2-one] | 1.58 nM
6 | Cc1ncc(C2CCc3c(F)cccc3N(Cc3c(F)cc(Br)cc3F)C2=O)cc1S(C)(=O)=O (single isomer, unassigned) [Example 39, 1-(4-bromo-2,6-difluorobenzyl)-6-fluoro-3-[6-methyl-5-(methylsulfonyl)pyridin-3-yl]-1,3,4,5-tetrahydro-2H-1-benzazepin-2-one] | 1.26 nM
7 | COc1ncc(N2CCc3c(F)cccc3N(Cc3c(C)cc(F)cc3F)C2=O)cc1S(C)(=O)=O [Example 18, 1-(2,4-difluoro-6-methylbenzyl)-6-fluoro-3-[6-methoxy-5-(methylsulfonyl)pyridin-3-yl]-1,3,4,5-tetrahydro-2H-1,3-benzodiazepin-2-one] | 1.26 nM
8 | Cc1ncc(C2CCc3c(F)cccc3N(Cc3c(F)cc(Br)cc3F)C2=O)cc1S(C)(=O)=O (single isomer, unassigned) [Example 38, 1-(4-bromo-2,6-difluorobenzyl)-6-fluoro-3-[6-methyl-5-(methylsulfonyl)pyridin-3-yl]-1,3,4,5-tetrahydro-2H-1-benzazepin-2-one] | 10 nM
9 | COc1ncc(C2CCc3c(F)cccc3N(Cc3c(F)cc(Br)cc3F)C2=O)cc1C(C)(F)F (single isomer, unassigned) [Example 12, 1-(4-bromo-2,6-difluorobenzyl)-3-[5-(1,1-difluoroethyl)-6-methoxypyridin-3-yl]-6-fluoro-1,3,4,5-tetrahydro-2H-1-benzazepin-2-one] | 0.398 nM
10 | COc1cc(F)c(CN2C(=O)N(c3cnc(OC)c(S(C)(=O)=O)c3)CCc3c(F)cccc32)c(F)c1F [Example 15, 6-fluoro-3-[6-methoxy-5-(methylsulfonyl)pyridin-3-yl]-1-(2,3,6-trifluoro-4-methoxybenzyl)-1,3,4,5-tetrahydro-2H-1,3-benzodiazepin-2-one] | 1.26 nM
11 | CSc1cc(N2CCc3c(F)cccc3N(Cc3c(F)cc(Br)cc3F)C2=O)ccc1C [Example 26, 1-(4-bromo-2,6-difluorobenzyl)-6-fluoro-3-[4-methyl-3-(methylsulfanyl)phenyl]-1,3,4,5-tetrahydro-2H-1,3-benzodiazepin-2-one] | 1.26 nM
12 | COc1ncc(C2CCc3c(F)cccc3N(Cc3c(F)cc(Br)cc3F)C2=O)cc1S(C)(=O)=O (single isomer, unassigned) [Example 21, 1-(4-bromo-2,6-difluorobenzyl)-6-fluoro-3-[6-methoxy-5-(methylsulfonyl)pyridin-3-yl]-1,3,4,5-tetrahydro-2H-1-benzazepin-2-one] | 0.316 nM

The next lines start with the values.

Row | Ki | Compound
13 | 1.26 nM | COc1nc(OC)c(C(C)(F)F)cc1N1CCc2c(F)cccc2N(Cc2c(F)cc(Br)cc2F)C1=O [Example 23, 1-(4-bromo-2,6-difluorobenzyl)-3-[5-(1,1-difluoroethyl)-2,6-dimethoxypyridin-3-yl]-6-fluoro-1,3,4,5-tetrahydro-2H-1,3-benzodiazepin-2-one]
14 | 0.631 nM | COCc1cc(F)c(CN2C(=O)N(c3cnc(C)c(C(C)(F)F)c3)CCc3c(F)cccc32)c(F)c1 [Example 33, 3-[5-(1,1-difluoroethyl)-6-methylpyridin-3-yl]-1-[2,6-difluoro-4-(methoxymethyl)benzyl]-6-fluoro-1,3,4,5-tetrahydro-2H-1,3-benzodiazepin-2-one]
15 | 0.316 nM | [2H]C([2H])([2H])OCc1cc(F)c(CN2C(=O)N(c3cnc(OC)c(C(C)(F)F)c3)CCc3c(F)cccc32)c(F)c1 [Example 5, 3-[5-(1,1-difluoroethyl)-6-methoxypyridin-3-yl]-1-(2,6-difluoro-4-{[(^2H3)methyloxy]methyl}benzyl)-6-fluoro-1,3,4,5-tetrahydro-2H-1,3-benzodiazepin-2-one]
16 | 1 nM | COCc1cc(F)c(CN2C(=O)N(c3cnc(OC)c(C(C)(F)F)c3)CCc3c(F)cccc32)c(F)c1 [Example 7, 3-[5-(1,1-difluoroethyl)-6-methoxypyridin-3-yl]-1-[2,6-difluoro-4-(methoxymethyl)benzyl]-6-fluoro-1,3,4,5-tetrahydro-2H-1,3-benzodiazepin-2-one]
17 | 0.794 nM | COc1cc(F)c(CN2C(=O)N(c3cnc(OC)c(S(C)(=O)=O)c3)CCc3c(F)cccc32)c(F)c1 [Example 16, 1-(2,6-difluoro-4-methoxybenzyl)-6-fluoro-3-[6-methoxy-5-(methylsulfonyl)pyridin-3-yl]-1,3,4,5-tetrahydro-2H-1,3-benzodiazepin-2-one]
18 | 0.631 nM | Cc1ncc(N2CCc3c(F)cccc3N(Cc3c(F)cc(Br)cc3F)C2=O)cc1C(C)(F)F [Example 32, 1-(4-bromo-2,6-difluorobenzyl)-3-[5-(1,1-difluoroethyl)-6-methylpyridin-3-yl]-6-fluoro-1,3,4,5-tetrahydro-2H-1,3-benzodiazepin-2-one]
19 | 3.16 nM | COc1ncc(N2CCc3c(F)cccc3N(Cc3c(F)cc(Br)cc3F)C2=O)cc1S(C)(=O)=O [Example 14, 1-(4-bromo-2,6-difluorobenzyl)-6-fluoro-3-[6-methoxy-5-(methylsulfonyl)pyridin-3-yl]-1,3,4,5-tetrahydro-2H-1,3-benzodiazepin-2-one]
